# In patent publication US7906484B2, “Complex for transferring an anionic substance into a cell” (Alnylam Pharmaceuticals, Inc., priority 2006, dated 2011):
# Assays:
# [1] = system: ENaC-alpha mRNA in H441 cells; assay: siRNA delivery into H441 cells, ENaC-alpha mRNA quantified by bDNA assay; assay type: cell-based, human; conditions: AD-7007
# Procedure: In order to test the potential of adding Histidine residues for improving the cross-membrane transport properties of peptides, we synthesized a modified ppTG20, termed ppTGHis herein, wherein 4 consecutive Histidine moieties were added to the C-terminus of ppTG20. We then compared the transport of siRNAs complexed with ppTG20 or ppTGHis into H441 cells, as evaluated by the ability of siRNAs to inhibit the expression of a gene constitutively expressed in H441 cells, ENaC-alpha. […]
# For transfection with peptide/siRNA complexes, H441 cells were seeded at 1.5×10^4 cells/well on 96-well plates (Greiner Bio-One GmbH, Frickenhausen, Germany) in 75 μl of growth medium. […] Thereafter, the cells were lysed by adding 50 μl of lysis mixture (content of the QuantiGene bDNA-kit from Panomics, Inc., Fremont, USA) to each well containing 100 μl of growth medium at 53° C. for 30 min, and ENaC mRNA levels were subsequently quantified with the Quantigene Explore Kit (Panomics, Inc., Dumbarton Circle Fremont, USA, cat. No. QG-000-02) according to the manufacturer's protocol. Finally, chemoluminescence was measured in a Victor2-Light (Perkin Elmer, Wiesbaden, Germany) as RLUs (relative light units) and values obtained with the hENaC probeset were normalized to the respective GAPDH values for each well (probe sequences shown in Table 2 and Table 3). […]
# [2] = system: E6AP mRNA in HCT116 cells; assay: siRNA AD-8724 delivery into HCT116 cells, inhibition of E6AP mRNA expression by bDNA assay; assay type: cell-based, human; conditions: 4° C., siRNA/peptide conc. 250 nM/2.5 μM
# [3] = system: E6AP mRNA in HCT116 cells; assay: as above; assay type: cell-based, human; conditions: for capacity for cross membrane transport of siRNA (quantity not given): 37° C., siRNA/peptide conc. 250 nM/2.5 μM
# Procedure: All further experiments were carried out using HCT116 cells and inhibition of E6AP expression as readout.
# HCT116-cells were obtained from the American Type Culture Collection (ATCC# CCL-247). They were cultured in McCoy's 5A medium (Biochrom AG, Berlin, Germany, Cat.# F1015) containing 10% fetal calf serum (FCS; Biochrom AG, Berlin, Germany, Cat.# S0115) and 2 mM L-Glutamin (Biochrom AG, Berlin, Germany, Cat.#: K0283) (standard growth medium). For incubation with peptide/siRNA, complexes, the medium was replaced by serum-free McCoy's 5A medium containing 2 mM L-Glutamin (serum free medium). After incubation with complexes for 4 h, McCoy's 5A medium containing 30% fetal calf serum and 2 mM L-Glutamin (triple FCS medium) was added to restore an overall 10% FCS in the medium.
# The E6AP-specific siRNA denoted AD-8724 herein was used, having the following sequences: antisense strand: 5′-ucacauuccacguuaggugTsT-3′ (SEQ ID NO:51), sense strand 5′-caccuaacguggaaugugaTsT-3′; (SEQ ID NO:52; lower case letters: ribonucleotides; s: phosphorothioate backbone linkage). As a negative control, an siRNA specific for eGFP, denoted AD-5107 herein, was used, having the following sequences: antisense strand: 5′-aagucgugcugcuucauguggOMesuOMesc-3′ (SEQ ID NO:19), sense strand 5′-[…]-3′ (SEQ ID NO:18; lower case letters: ribonucleotides; subscript OMe: 2′-O-methyl-ribonucleotide; s: phosphorothioate backbone linkage). In addition to the non-specific control siRNA AD-5107, mock transfected cells treated with standard growth medium only were used as negative controls. As a positive control, AD-8724 was transfected into the cells using Lipofectamine2000™ (Invitrogen, Karlsruhe, Germany, Cat. No. 11668-019). As a further control, AD-5107 was transfected into cells using Lipofectamine2000™. All assays were performed in quadruplicates.
# SiRNA/peptide complexes were prepared by mixing a solution of the siRNA in deionized water with a solution of the peptide in deionized water at the appropriate concentrations to give the desired ratio of siRNA/peptide at the desired concentration of the complex. The mixture was incubated at room temperature for 30 min and kept at 4° C. until use, and used within 24 h.
# For transfections with siRNA/peptide complexes, 1.5×10^5 HCT116-cells per well in 150 μl standard growth medium were seeded into polystyrene 96 well plates and grown for 24 h at 37° C. in an atmosphere containing 5% CO2. The medium was removed by aspiration, and 90 μl serum-free medium and 10 μl of siRNA/peptide complex solution were added. Cells were incubated for 4 h at 37° C./5% CO2, 50 μl triple FCS medium were added, and the cells incubated for another 20 h under identical conditions. Subsequently, E6AP mRNA content was determined as described below.
# For Lipofectamine2000™ transfections, 0.5 μl Lipofectamine2000™ were mixed with 12 μl OptiMem™ (Invitrogen, Karlsruhe, Germany, Cat. No. 11058-021) and incubated for 15 min. 1 μl of a 5 μM solution of the respective siRNA in PBS (Biochrom AG, Berlin, Germany, Cat-No: L182-05) were added to 11.5 μl OptiMeM™, mixed with the Lipofectamine2000™/OptiMem™ solution, and incubated for further 15 min. 1.5×10^5 HCT116-cells per well in 150 μl standard growth medium were grown for 24 h as described above, the growth medium removed from the cells by aspiration, and 75 μl fresh standard growth medium and the 25 μl of the siRNA/Lipofectamine2000™ mix were added to the well, to give a final siRNA concentration of 50 nM. The cells were incubated for 24 h at 37° C./5% CO2 and E6AP mRNA concentration determined.
# The QuantiGene™ bDNA-kit from Panomics, Inc., Fremont, USA, was used according to manufacturer's instructions. Briefly, cells were lysed by adding 50 μl of Lysis Mixture (from QuantiGene bDNA-kit) to each well and incubation at 53° C. for 1 h. […]
# eGFP-mRNA = assay: Influence of peptide/siRNA ratio on siRNA activity in HCT116 cells; assay type: cell-based; conditions: 250 nM siRNA
# Procedure: The optimal ratio of (peptide):(anionic substance) for complex formation, was determined in section 3 above to lie in the range of 8:1 to 13:1 by titrating a fixed concentration of the anionic substance with increasing amounts of the peptide, and monitoring complex formation by electrophoresis of the mixture. To further validate and possibly narrow down the optimum ratio of peptide/anionic substance, an assay with a functional readout was performed. HCT116 cells were incubated with siRNA complexes as described above at concentrations such that the amount of siRNA in the incubation mixture corresponds to a 250 nM concentration of the siRNA, and the peptide/siRNA ratio was 8:1, 10:1, 12:1, or 14:1.
# [4] = AD-8724, siRNA/peptide conc. 25 nM/250 nM
# [5] = AD-8724, siRNA/peptide conc. 250 nM/2.5 μM
# [6] = AD-8724, siRNA/peptide conc. 1 μM/10 μM
# [7] = siRNA AD-8724 250 nM, molar peptide/siRNA ratio 12.5:1
Sequence,transfection efficiency and resulting siRNA activity compared with Lipofectamine [1],transfection efficiency and resulting siRNA activity relative to ppTG20 [1],capacity for cross membrane transport of siRNA (quantity not given) [2] [%],capacity for cross membrane transport of siRNA (quantity not given) [3],"remaining E6AP mRNA (in % of mock) [3, 4] [%]","remaining E6AP mRNA (in % of mock) [3, 5] [%]","remaining E6AP mRNA (in % of mock) [3, 6] [%]","remaining E6AP mRNA (in % of mock) [3, 7] [%]",Remaining eGFP-mRNA in % of mock-transfected controls (eGFP-mRNA; peptide/siRNA ratio 8:1) [%],Remaining eGFP-mRNA in % of mock-transfected controls (eGFP-mRNA; peptide/siRNA ratio 10:1) [%],Remaining eGFP-mRNA in % of mock-transfected controls (eGFP-mRNA; peptide/siRNA ratio 12:1) [%],Remaining eGFP-mRNA in % of mock-transfected controls (eGFP-mRNA; peptide/siRNA ratio 14:1) [%]
"GLFRALLRLLRSLWRLLLRAHHHH [ppTGHis, ppTG20 with 4 histidines added to the C-terminus]",comparable to that of Lipofectamine™,approximately 10 fold,,,,,,,,,,
HLFRALLRLLRHLWRLLLRA [AP-10],,,81 ± 16,13 ± 8%,98 ± 8,28 ± 4,17 ± 1,41 ± 21,42 ± 3,24 ± 4,24 ± 2,32 ± 4
RLFRALLRLLRSLWRLLRRA [AP-4],,,56 ± 4,30 ± 5% RT,96 ± 24,49 ± 11,37 ± 9,34 ± 6,23 ± 6,18 ± 6,52 ± 6,43 ± 4
